We go through eight molecules from patent US11802127B2, “3,4-dihydro-2,7-naphthyridine-1,6(2H,7H)-diones as MEK inhibitors” (Pfizer Inc., priority 2021, dated 2023).

Broadly, the IC50 is the point on the concentration scale where inhibition reaches its midpoint. A higher IC50 goes with weaker potency in that assay. As usually defined, the Papp is the rate of passage across a membrane or cell layer, normalised by area and donor concentration. Low readings indicate poor permeation, high ones ready permeation.

The target in one series is T1, BCRP (hBCRP) (Homo sapiens, UniProt Q9UNQ0).
T1 construct: expressed in transfected cells; host or cells: MDCKII (canine kidney) cells, canine P-gp knockout, transfected with BCRP
T1 sequence (Q9UNQ0 1-655): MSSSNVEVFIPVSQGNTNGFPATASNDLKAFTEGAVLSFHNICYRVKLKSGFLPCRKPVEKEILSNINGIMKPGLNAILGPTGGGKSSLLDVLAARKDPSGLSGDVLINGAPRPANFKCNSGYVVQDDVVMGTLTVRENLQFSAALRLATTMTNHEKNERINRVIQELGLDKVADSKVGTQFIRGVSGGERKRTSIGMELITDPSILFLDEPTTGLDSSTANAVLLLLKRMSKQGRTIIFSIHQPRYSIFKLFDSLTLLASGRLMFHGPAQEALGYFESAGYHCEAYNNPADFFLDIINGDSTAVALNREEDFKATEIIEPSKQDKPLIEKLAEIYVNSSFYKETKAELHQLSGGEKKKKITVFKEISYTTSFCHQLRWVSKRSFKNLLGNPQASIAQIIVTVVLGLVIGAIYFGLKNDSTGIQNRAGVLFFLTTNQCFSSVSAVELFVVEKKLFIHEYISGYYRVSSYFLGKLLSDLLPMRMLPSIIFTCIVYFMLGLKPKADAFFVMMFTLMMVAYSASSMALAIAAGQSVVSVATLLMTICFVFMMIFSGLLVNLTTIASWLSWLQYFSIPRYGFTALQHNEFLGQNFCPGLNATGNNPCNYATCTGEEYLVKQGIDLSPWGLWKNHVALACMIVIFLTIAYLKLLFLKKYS
Briefly: Efflux ratio in BCRP transfected MDCKII canine P-gp knockout cells. Conditions: Papp(B−A)/Papp(A−B), read-out: Efflux ratio MDCKII-hBCRP knock-in,canine pg-P KO. The class given is in vitro ADME. The essentials:
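Test article at 1 μM final (1% organic) in A→B and B→A directions across MDCKII P-gp knockout monolayers expressing BCRP, 2 h at 37° C., triplicate; lucifer yellow checked monolayer integrity. Concentrations by LC-MS/MS against labetalol internal standard; efflux ratio = Papp(B−A)/Papp(A−B).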

A further series concerns the target T2, P-gp (MDR1) (Homo sapiens, UniProt P08183).
T2 construct: expressed in transfected cells; host or cells: LLC-PK1 (porcine kidney) cells transfected with MDR1
Briefly: Efflux ratio in MDR1 transfected LLC-PK1 cells. Conditions: pig, Papp(B−A)/Papp(A−B). The class given is in vitro ADME. The essentials: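 LLC-PK1 cells transfected with MDR1, test article at 1 μM (1% organic), transport measured A→B and B→A over 2 h at 37° C. Monolayer integrity checked with lucifer yellow, compound quantified by LC-MS/MS. Efflux ratio = Papp(B−A)/Papp(A−B).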

For series [1], the system named is ERK1/2(Thr202/Tyr204) phosphorylation (MEK-dependent) in A375 cells. Briefly: Cellular Phospho-p44/42 MAPK (Erk1/2) (Thr202/Tyr204) Assay. In kind it is cell-based. To be noted: Homo sapiens, A-375, 1-hour incubation, pERK1/2 (Thr202/Tyr204) In-Cell Western normalized to GAPDH. The essentials:
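A375 cells exposed 1 h to 10-point 1:3 dilutions (top 20–1 μM, 0.5% DMSO), then fixed and stained for pERK1/2 (Thr202/Tyr204) by In-Cell Western. Signal normalized to GAPDH per well; DMSO and 1 μM reference inhibitor define 0 and 100% inhibition.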

Series [2] can be described thus: MDR1 LLC-PK1 and BCRP MDCKII Permeability Assay: permeability coefficient (Papp). In kind it is in vitro ADME. To be noted: MDCK, test article 1 μM, 37° C. The essentials:
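Bidirectional (A to B, B to A) transport of test article (1 μM, 1% organic) across MDR1-transfected LLC-PK1 or BCRP-transfected MDCKII (canine P-gp knockout) monolayers, 2 h at 37° C., 5% CO2, in triplicate. Lucifer yellow monitored monolayer integrity. Concentrations measured by LC-MS/MS against labetalol internal standard.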

The nature of series [3]: Moisture sorption analysis of solid forms. The class given is physicochemical. To be noted: 25° C. The procedure:
Water sorption and desorption studies were conducted on automated vapor sorption analyzer (TA instruments Q5000 SA). The microbalance was calibrated using a 100 mg standard weight. The relative humidity sensor was calibrated at 5.0, 11.3, 32.8, 52.8, 75.3, and 84.3% RH (25° C.) using saturated salt solutions. Approximately 10-20 mg of crystalline monohydrate 8-((2-fluoro-4-(methylthio)phenyl)amino)-2-(2-hydroxyethoxy)-7-methyl-3,4-dihydro-2,7-naphthyrdine-1,6(2H,7H)-dione, Form 3 was placed in the quartz sample holder and dried at ≤3% relative humidity (RH) at 25° C. […] A maximum equilibration time of 120 minutes was used for all steps. The weight gain at each of the % RH steps is based on the weight after the initial drying step at 0% RH. The weight change of the sample was not used to assess equilibrium and instead all steps were programed to be 120 minutes. After data collection was complete, data analysis was performed using commercially available TA universal analysis software and Microsoft Excel.
FIG. 5 depicts the sorption isotherm of crystalline monohydrate 8-((2-fluoro-4-(methylthio)phenyl)amino)-2-(2-hydroxyethoxy)-7-methyl-3,4-dihydro-2,7-naphthyridine-1,6(2H,7H)-dione, Form 3. […] Crystalline anhydrous 8-((2-fluoro-4-(methylthio)phenyl)amino)-2-(2-hydroxyethoxy)-7-methyl-3,4-dihydro-2,7-naphthyridine-1,6(2H,7H)-dione, Form 2 rehydrates to crystalline monohydrate 8-((2-fluoro-4-(methylthio)phenyl)amino)-2-(2-hydroxyethoxy)-7-methyl-3,4-dihydro-2,7-naphthyridine-1,6(2H,7H)-dione, Form 3 at 25% RH at 25° C. as confirmed by PXRD analysis. Based on this analysis, crystalline anhydrous 8-((2-fluoro-4-(methylthio)phenyl)amino)-2-(2-hydroxyethoxy)-7-methyl-3,4-dihydro-2,7-naphthyridine-1,6(2H,7H)-dione, Form 2 is stable below 10% RH at 25° C., and crystalline monohydrate 8-((2-fluoro-4-(methylthio)phenyl)amino)-2-(2-hydroxyethoxy)-7-methyl-3,4-dihydro-2,7-naphthyridine-1,6(2H,7H)-dione, Form 3 is stable above 30% RH at 25° C.

T2 sequence (P08183 whole entry): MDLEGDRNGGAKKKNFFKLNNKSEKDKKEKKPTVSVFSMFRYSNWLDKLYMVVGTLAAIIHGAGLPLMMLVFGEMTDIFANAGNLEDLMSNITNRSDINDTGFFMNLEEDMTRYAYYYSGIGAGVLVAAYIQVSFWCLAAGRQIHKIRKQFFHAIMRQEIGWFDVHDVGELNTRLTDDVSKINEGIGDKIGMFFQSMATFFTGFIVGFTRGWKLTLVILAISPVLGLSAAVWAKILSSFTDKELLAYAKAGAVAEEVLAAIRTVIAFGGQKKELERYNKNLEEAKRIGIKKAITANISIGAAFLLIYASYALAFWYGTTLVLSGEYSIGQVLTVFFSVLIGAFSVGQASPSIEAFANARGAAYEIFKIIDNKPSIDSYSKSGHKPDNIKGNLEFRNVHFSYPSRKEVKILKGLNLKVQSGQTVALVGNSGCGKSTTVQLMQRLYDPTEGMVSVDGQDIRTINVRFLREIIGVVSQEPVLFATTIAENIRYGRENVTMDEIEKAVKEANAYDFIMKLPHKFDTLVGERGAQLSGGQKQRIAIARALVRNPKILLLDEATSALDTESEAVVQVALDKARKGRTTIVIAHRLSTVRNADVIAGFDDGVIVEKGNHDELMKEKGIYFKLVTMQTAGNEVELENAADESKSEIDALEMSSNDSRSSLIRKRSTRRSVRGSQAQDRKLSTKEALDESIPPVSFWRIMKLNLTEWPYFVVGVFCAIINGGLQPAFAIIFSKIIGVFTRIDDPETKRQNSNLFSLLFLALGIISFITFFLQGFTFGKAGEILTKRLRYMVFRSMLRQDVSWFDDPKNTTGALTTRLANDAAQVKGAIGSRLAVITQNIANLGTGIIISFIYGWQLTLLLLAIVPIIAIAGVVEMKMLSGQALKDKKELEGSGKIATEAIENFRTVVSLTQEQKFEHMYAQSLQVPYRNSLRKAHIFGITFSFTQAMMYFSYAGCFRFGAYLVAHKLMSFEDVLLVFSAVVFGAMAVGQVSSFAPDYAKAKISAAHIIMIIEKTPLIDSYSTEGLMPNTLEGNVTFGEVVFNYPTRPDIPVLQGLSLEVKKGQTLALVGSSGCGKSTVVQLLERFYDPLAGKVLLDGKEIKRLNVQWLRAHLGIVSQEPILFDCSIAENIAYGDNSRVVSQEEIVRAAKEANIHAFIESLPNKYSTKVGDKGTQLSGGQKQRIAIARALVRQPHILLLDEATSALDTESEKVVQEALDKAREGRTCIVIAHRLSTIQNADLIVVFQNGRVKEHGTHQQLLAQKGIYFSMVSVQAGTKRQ

With `CCc1ccc(Nc2c3c(cc(=O)n2C)CCNC3=O)c(F)c1` [Example 51, 8-((4-ethyl-2-fluorophenyl)amino)-7-methyl-3,4-dihydro-2,7-naphthyridine-1,6(2H,7H)-dione], the efflux ratio at 2 h, 1 μM at BCRP (hBCRP) and on P-gp (MDR1) was 1.2 in each case. This molecule displayed an IC50 in series [1] of 26 nM. Besides, the apparent permeability coefficient (Papp) at 2 h, 1 μM in series [2] is 41.2 ×10⁻⁶ cm/s.
In the case of `Cn1c(Nc2ccc(C3CC3)cc2F)c2c(cc1=O)CCNC2=O` [Example 52, 8-((4-cyclopropyl-2-fluorophenyl)amino)-7-methyl-3,4-dihydro-2,7-naphthyridine-1,6(2H,7H)-dione], the figures for the efflux ratio at 2 h, 1 μM at BCRP (hBCRP) and at P-gp (MDR1) were 1.2 and 1.3, respectively. The IC50 in series [1] was found to be 30 nM. This molecule yielded a Papp at 2 h, 1 μM in series [2] of 36.8 ×10⁻⁶ cm/s.
For `Cn1c(Nc2ccc(OC(F)F)cc2F)c2c(cc1=O)CCNC2=O` [Example 53, 8-((4-(difluoromethoxy)-2-fluorophenyl)amino)-7-methyl-3,4-dihydro-2,7-naphthyridine-1,6(2H,7H)-dione], in that order: 1.8, 1.1, 30 nM and 36.9 ×10⁻⁶ cm/s.
For `CSc1ccc(Nc2c3c(c(C)c(=O)n2C)CCNC3=O)c(F)c1` [Example 55, 8-((2-fluoro-4-(methylthio)phenyl)amino)-5,7-dimethyl-3,4-dihydro-2,7-naphthyrdine-1,6(2H,7H)-dione], in that order: 1.4, 1.4, 28 nM and 37.4 ×10⁻⁶ cm/s.
Turning to `CCc1ccc(Nc2c3c(c(C)c(=O)n2C)CCNC3=O)c(F)c1` [Example 56, 8-((4-ethyl-2-fluorophenyl)amino)-5,7-dimethyl-3,4-dihydro-2,7-naphthyridine-1,6(2H,7H)-dione], the efflux ratio at 2 h, 1 μM stood at 1.1 at BCRP (hBCRP) and 0.8 at P-gp (MDR1). Also, in series [1], the IC50 amounted to 56 nM. This molecule returned an apparent permeability (Papp) at 2 h, 1 μM in series [2] of 32.1 ×10⁻⁶ cm/s.
In the same order, the values of `Cc1c2c(c(Nc3ccc(C4CC4)cc3F)n(C)c1=O)C(=O)NCC2` [Example 57, 8-((4-cyclopropyl-2-fluorophenyl)amino)-5,7-dimethyl-3,4-dihydro-2,7-naphthyridine-1,6(2H,7H)-dione] are 1.2, 0.9, 94 nM and 31.8 ×10⁻⁶ cm/s.
For `CSc1ccc(Nc2c3c(cc(=O)n2C)CCN(OCCO)C3=O)c(F)c1` [Form 2, 8-((2-fluoro-4-(methylthio)phenyl)amino)-2-(2-hydroxyethoxy)-7-methyl-3,4-dihydro-2,7-naphthyridine-1,6(2H,7H)-dione], the “relative humidity at which the solid form is stable” value in series [3] was “below 10 % RH”. Besides, the “relative humidity at which anhydrous Form 2 rehydrates to monohydrate Form 3” value in series [3] (confirmed by PXRD) worked out at 25 % RH.
On to `CSc1ccc(Nc2c3c(cc(=O)n2C)CCN(OCCO)C3=O)c(F)c1` [Form 3, 8-((2-fluoro-4-(methylthio)phenyl)amino)-2-(2-hydroxyethoxy)-7-methyl-3,4-dihydro-2,7-naphthyridine-1,6(2H,7H)-dione], for which the “relative humidity at which the solid form is stable” value in series [3] is reported as “above 30 % RH”. Further, the “relative humidity at which monohydrate Form 3 dehydrates to anhydrous Form 2” value in series [3] (confirmed by PXRD) is 15 % RH.
